In ChEMBL document CHEMBL1201862, “PubChem BioAssay data set” (2004):
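All cell lines were grown in 96-well plates and treated with compound for 48 hours. GI50 is the concentration that inhibits growth by half.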 Active and inactive are the calls of the source. Rule as the data show it: active = GI50 up to about 1.1 µM and inactive = higher. Residues, ends and D or L forms follow the SMILES beside them. Groups on a side chain read outwards from the residue. *: point of attachment. Cbz = O=C(OCc1ccccc1)*; Boc = CC(C)(C)OC(=O)*

What was measured:
Assay in all cases: growth of human tumour cells (NCI), 48 h
[1] = tested on: NCI-H226
[2] = tested on: SN12C
[3] = tested on: A498
[4] = tested on: HOP-62
[5] = tested on: OVCAR-3
[6] = tested on: HOP-92
[7] = tested on: OVCAR-5
[8] = tested on: HL-60
[9] = tested on: RPMI-8226
[10] = tested on: COLO 205
[11] = tested on: HCT-116
[12] = tested on: Malme-3M
[13] = tested on: SK-MEL-5
[14] = tested on: A549
[15] = tested on: UACC-62
[16] = tested on: T47D
[17] = tested on: SK-MEL-2
[18] = tested on: NCI-H522
[19] = tested on: Hs-578T

Measured: GI50

CN(C)Nc1cc(=O)[nH]c(=O)[nH]1
inactive: [1] > 100 µM | [2] > 100 µM | [3] > 100 µM | [4] > 100 µM | [5] > 100 µM | [6] > 100 µM | [7] > 100 µM | [8] > 100 µM | [9] > 100 µM | [10] > 100 µM | [11] > 100 µM | [12] > 100 µM | [13] > 100 µM | [14] > 100 µM

COc1cccc(Nc2nc3c([nH]2)c(=O)n(C)c(=O)n3C)c1
inactive: [2] > 10 µM | [4] > 10 µM | [15] > 10 µM | [6] > 10 µM | [16] > 10 µM | [8] > 10 µM | [9] > 10 µM | [10] > 10 µM | [12] > 10 µM | [13] > 10 µM | [14] > 10 µM

O=C(/C=C/c1ccc(O)cc1)c1ccc2c(c1)OCO2
inactive: [1] 15.5 µM | [2] 15.9 µM | [3] 23.8 µM | [4] 18.7 µM | [15] 18.7 µM | [5] 16.5 µM | [6] 22.4 µM | [7] 27.4 µM | [16] 26.6 µM | [8] 12.1 µM | [17] 27 µM | [10] 14.7 µM | [11] 12.5 µM | [12] 31.8 µM | [13] 16 µM | [18] 12.8 µM | [14] 19.4 µM

CCN(CC)CCN(C(=O)C(C)(C)C)c1ccccc1N
inactive: [1] > 100 µM | [2] > 100 µM | [4] > 100 µM | [15] > 100 µM | [5] > 100 µM | [6] > 100 µM | [7] > 100 µM | [8] > 100 µM | [9] > 100 µM | [11] > 100 µM | [12] > 100 µM | [13] > 100 µM | [18] > 100 µM | [14] > 100 µM

O=C(Nn1c(-c2cccs2)nc2ccc(I)cc2c1=O)c1ccccc1
inactive: [1] 28.5 µM | [2] 35.6 µM | [4] 40.7 µM | [15] 20.6 µM | [5] 16.9 µM | [6] 17.8 µM | [7] 37.8 µM | [10] 30.7 µM | [11] 35.3 µM | [13] 21.9 µM | [18] 22.1 µM | [14] 18.8 µM

Cc1ccc(S(=O)(=O)Nn2c(S)c(C#N)c(-c3ccc(Cl)cc3)c(C#N)c2=O)cc1
inactive: [1] 16.4 µM | [2] 25.7 µM | [3] 26.5 µM | [15] 27.7 µM | [5] 53.6 µM | [6] 59 µM | [7] 50.1 µM | [8] 23 µM | [9] 26.2 µM | [17] 56.8 µM | [10] 35.6 µM | [11] 28.4 µM | [12] 30.8 µM | [13] 16.4 µM | [18] 16.6 µM | [14] 43.7 µM

COc1ccc(C2=Nc3c(nc(OC)[nH]c3=O)NC(c3ccccc3)C2)cc1 (stereo unspecified)
inactive: [1] 36.6 µM | [2] 23.2 µM | [3] 32.6 µM | [4] 41.5 µM | [15] 42.8 µM | [5] 33.8 µM | [6] 32.3 µM | [7] 46.6 µM | [8] 19.3 µM | [9] 32.7 µM | [17] 25.7 µM | [10] 24.6 µM | [11] 28.4 µM | [12] > 100 µM | [13] 18.4 µM | [18] 28.7 µM | [14] 34.4 µM

O=C1CC(c2ccccc2)[S+]([O-])c2ccccc2N1 (stereo unspecified)
inactive: [1] > 100 µM | [2] > 100 µM | [4] > 100 µM | [15] > 100 µM | [5] > 100 µM | [7] > 100 µM | [16] > 100 µM | [8] > 100 µM | [9] > 100 µM | [10] > 100 µM | [11] > 100 µM | [19] > 100 µM | [12] > 100 µM | [13] > 100 µM | [18] > 100 µM | [14] > 100 µM

CC(C)CC(NC(=O)OCc1ccccc1)C(=O)NCCCCC(NC(=O)C(CCCCNC(=O)C(CC(C)C)NC(=O)OCc1ccccc1)NC(=O)C(CCCCNC(=O)C(CC(C)C)NC(=O)OCc1ccccc1)NC(=O)C(CCCCNC(=O)C(CC(C)C)NC(=O)OCc1ccccc1)NC(=O)OC(C)(C)C)C(=O)O (stereo unspecified) (Boc-K([Leu-Cbz])K([Leu-Cbz])K([Leu-Cbz])K([Leu-Cbz])-OH; configuration not given here)
inactive: [1] > 25 µM | [2] > 25 µM | [3] > 25 µM | [4] > 25 µM | [15] > 25 µM | [5] > 25 µM | [7] > 25 µM | [16] > 25 µM | [8] > 25 µM | [9] > 25 µM | [17] > 25 µM | [11] > 25 µM | [12] > 25 µM | [13] > 25 µM | [18] > 25 µM | [14] > 25 µM

O=c1[nH]c(=O)n(C2CC(O)C(CO)O2)cc1OC/C=C/Cc1ccccc1 (stereo unspecified)
inactive: [1] > 100 µM | [2] > 100 µM | [4] > 100 µM | [15] > 100 µM | [5] > 100 µM | [7] > 100 µM | [16] > 100 µM | [8] > 100 µM | [9] > 100 µM | [10] > 100 µM | [11] > 100 µM | [19] > 100 µM | [12] > 100 µM | [13] > 100 µM | [18] > 100 µM | [14] > 100 µM

Cc1cc(C)c(S(=O)(=O)N2CCCN(S(=O)(=O)c3c(C)cc(C)cc3C)OCCCON(S(=O)(=O)c3c(C)cc(C)cc3C)CCCN(S(=O)(=O)c3c(C)cc(C)cc3C)OCCCO2)c(C)c1
inactive: [1] > 100 µM | [4] > 100 µM | [15] > 100 µM | [5] > 100 µM | [6] 36.1 µM | [7] > 100 µM | [8] 46.6 µM | [9] 67.3 µM | [17] > 100 µM | [10] > 100 µM | [11] > 100 µM | [19] 51.8 µM | [12] > 100 µM | [13] > 100 µM | [18] > 100 µM | [14] > 100 µM

Cc1c(-c2ccccc2)n(C)c2cn[nH]c(=O)c12
inactive: [3] 30.4 µM | [4] 30 µM | [15] 34.9 µM | [5] 19.7 µM | [6] 81.1 µM | [7] 52.2 µM | [8] 36.5 µM | [9] 38.1 µM | [17] 22.7 µM | [10] 17.1 µM | [11] 35.9 µM | [19] 41.2 µM | [12] 42.6 µM | [13] 17.3 µM | [18] > 100 µM | [14] 44.8 µM
